Measurements taken from the supplement of paper PMC11061612.

Legend:
Assay in all cases: Bliss excess, mean over the matrix (fraction); higher = more synergy
[1] = test system: NCI-H1975 (Lung Adenocarcinoma)
Method in brief: (§1)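 Cell lines grown in DMEM/F12 or RPMI with 10% FBS were plated in 1536-well plates and held 24 hours at 37°C, 5% CO2 before 72 hours of exposure to two-drug dose matrices, with DMSO typically at 0.2%. CellTiter-Glo 2.0 luminescence gave viability, which was converted to inhibition. Vehicle wells were set to 0 and blank wells to 1. Combination Emax is the second-highest inhibition in the matrix, and Bliss excess is the observed combination effect minus the expected EA + EB − EA·EB, where EA and EB are the single-agent effects.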

[2] = test system: ATN-1 (T-Lymphoblastic Leukemia)
Method in brief: as §1

[3] = test system: JJN-3 (Plasma Cell Myeloma)
Method in brief: as §1

[4] = test system: SBC-3 (Small Cell Lung Carcinoma)
Method in brief: as §1

[5] = test system: TOV-21G (Ovarian Carcinoma)
Method in brief: as §1

[6] = test system: BC-1 (B-Cell Non-Hodgkin's Lymphoma)
Method in brief: as §1

[7] = test system: COR-L105 (Lung Adenocarcinoma)
Method in brief: as §1

[8] = test system: NCI-H1944 (Lung Adenocarcinoma)
Method in brief: as §1

[9] = test system: SBC-5 (Small Cell Lung Carcinoma)
Method in brief: as §1

[10] = test system: OVKATE (Ovarian Carcinoma)
Method in brief: as §1

[11] = test system: NCI-H1435 (Non-Small Cell Lung Carcinoma)
Method in brief: as §1

[12] = test system: A375 (Melanoma)
Method in brief: as §1

[13] = test system: DK-MG (Glioblastoma)
Method in brief: as §1

[14] = test system: RS4-11 (B-Lymphoblastic Leukemia)
Method in brief: as §1

[15] = test system: HT-144 (Melanoma)
Method in brief: as §1

[16] = test system: SNU-1 (Gastric Carcinoma)
Method in brief: as §1

[17] = test system: C2BBe1 (Colorectal Carcinoma)
Method in brief: as §1

[18] = test system: NCI-H2023 (Non-Small Cell Lung Carcinoma)
Method in brief: as §1

[19] = test system: NCI-H835 (Other Solid Carcinomas)
Method in brief: as §1

[20] = test system: OCI-M1 (Acute Myeloid Leukemia)
Method in brief: as §1

Row | SMILES | Bliss excess [1] | Bliss excess [2] | Bliss excess [3] | Bliss excess [4] | Bliss excess [5] | Bliss excess [6] | Bliss excess [7] | Bliss excess [8] | Bliss excess [9] | Bliss excess [10] | Bliss excess [11] | Bliss excess [12] | Bliss excess [13] | Bliss excess [14] | Bliss excess [15] | Bliss excess [16] | Bliss excess [17] | Bliss excess [18] | Bliss excess [19] | Bliss excess [20]
1 | COc1cc2ncnc(Nc3ccc(F)c(Cl)c3)c2cc1OCCCN1CCOCC1 [Gefitinib] + CC(C)n1c(=O)n(C)c2cnc3cc(F)c(-c4ccc(OCCCN5CCCCC5)nc4)cc3c21 [AZD1390] (first compound max 10 µM, 7x7, partner max 0.3 µM) | -0.0676 | -0.0377 | -0.0185 | -0.0501 | -0.084 | -0.0279 | -0.0374 | -0.0668 | -0.0649 | -0.0386 | -0.0289 | -0.0544 | -0.0817 | -0.0484 | -0.0682 | -0.0701 | -0.029 | -0.0463 | -0.0381 | -0.065
2 | COc1cc2c(cc1OCCCCCOc1cc3c(cc1OC)C(=O)N1C=C(C)C[C@H]1C=N3)N=C[C@@H]1CC(C)=CN1C2=O [SG3199] + O=C(c1cc(Cc2n[nH]c(=O)c3ccccc23)ccc1F)N1CCN(C(=O)C2CC2)CC1 [Olaparib] (first compound max 0.001 µM, 7x7, partner max 10 µM) | -0.0171 | -0.0249 | 0.0128 | -0.0516 | -0.0322 | -0.0102 | -0.0371 | -0.0259 | -0.0193 | -0.0653 | -0.0584 | -0.0304 | -0.0446 | 0.0338 | -0.0443 | 0.0755 | -0.0188 | -0.0562 | -0.0406 | -0.0065
3 | CN(CCO)CC[C@H](CSc1ccccc1)Nc1ccc(S(=O)(=O)NC(=O)c2ccc(N3CCC([C@@H](O)c4ccccc4-c4ccc(Cl)cc4)CC3)cc2)cc1S(=O)(=O)C(F)(F)F [AZD4320] + Nc1ccn([C@@H]2O[C@H](CO)[C@@H](O)C2(F)F)c(=O)n1 [Gemcitabine] (first compound max 1 µM, 7x7, partner max 0.3 µM) | – | – | – | 0.0194 | – | -0.0074 | -0.0111 | – | – | -0.0542 | -0.0344 | 0.0047 | – | – | – | – | – | 0.0338 | 0.0682 | –
4 | CN(CCO)CC[C@H](CSc1ccccc1)Nc1ccc(S(=O)(=O)NC(=O)c2ccc(N3CCC([C@@H](O)c4ccccc4-c4ccc(Cl)cc4)CC3)cc2)cc1S(=O)(=O)C(F)(F)F [AZD4320] + C[C@@H](Nc1cc(F)cc(F)c1)c1cc(C(=O)N(C)C)cc2c(=O)cc(N3CCOCC3)oc12 [AZD8186] (first compound max 1 µM, 7x7, partner max 3 µM) | 0.0261 | -0.0214 | 0.0409 | -0.0093 | -0.0083 | 0.0677 | -0.0279 | -0.0426 | 0.0591 | -0.0277 | 0.131 | 0 | -0.0164 | 0.0239 | 0.0944 | -0.0024 | 0.0231 | -0.034 | – | 0.0278
5 | N#Cc1cnc(Nc2cc(NC[C@H]3CNCCO3)c(C(F)(F)F)cn2)cn1 [SRA737] + Nc1ccn([C@@H]2O[C@H](CO)[C@@H](O)C2(F)F)c(=O)n1 [Gemcitabine] (first compound max 10 µM, 7x7, partner max 0.3 µM) | – | – | – | 0.0064 | – | 0.0426 | -0.0009 | – | – | 0.0092 | 0.0521 | 0.0398 | – | – | – | – | – | 0.0332 | -0.0363 | –
6 | N#Cc1cnc(Nc2cc(NC[C@H]3CNCCO3)c(C(F)(F)F)cn2)cn1 [SRA737] + O=c1[nH]cc(F)c(=O)[nH]1 [5-Fluorouracil] (first compound max 10 µM, 7x7, partner max 20 µM) | – | – | – | -0.0447 | – | -0.001 | -0.0048 | – | – | -0.0286 | -0.0012 | -0.0149 | – | – | – | – | – | 0.0353 | 0.0621 | –
7 | N#Cc1cnc(Nc2cc(NC[C@H]3CNCCO3)c(C(F)(F)F)cn2)cn1 [SRA737] + C=CCn1c(=O)c2cnc(Nc3ccc(N4CCN(C)CC4)cc3)nc2n1-c1cccc(C(C)(C)O)n1 [AZD1775] (first compound max 10 µM, partner max 1 µM) | – | – | – | 0.155 | – | 0.099 | 0.031 | – | – | -0.0409 | 0.0093 | 0.0455 | – | – | – | – | – | 0.0404 | 0.01 | –
8 | Cc1cc2ncnn2cc1Nc1ncc2c(n1)n(C1CCOCC1)c(=O)n2C [AZD7648] + O=C(c1cc(Cc2n[nH]c(=O)c3ccccc23)ccc1F)N1CCN(C(=O)C2CC2)CC1 [Olaparib] (first compound max 10 µM, 7x7, partner max 10 µM) | 0.0135 | -0.031 | -0.008 | -0.0148 | -0.0363 | 0.0015 | -0.034 | -0.033 | -0.034 | -0.0688 | -0.0366 | -0.0339 | -0.0126 | -0.0831 | -0.0519 | 0.0384 | -0.0402 | -0.0892 | – | -0.0248
